According to PubChem BioAssay (NCI):
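Exposure lasted 48 hours, with cells grown in 96-well plates and compounds tested at five concentrations. GI50: concentration for 50% inhibition of growth. TGI: concentration producing complete growth inhibition.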

Legend:
Assay in all cases: inhibition of tumour cell growth, NCI panel, 48 h
786-0 renal = system: 786-0 renal
BT-549 breast = system: BT-549 breast
HCT-116 colon = system: HCT-116 colon
K-562 leukemia = system: K-562 leukemia
LOX IMVI melanoma = system: LOX IMVI melanoma
MDA-MB-435 = system: MDA-MB-435
NCI/ADR-RES ovarian = system: NCI/ADR-RES ovarian
OVCAR-5 ovarian = system: OVCAR-5 ovarian
SR leukemia = system: SR leukemia
SF-295 CNS = system: SF-295 CNS

SMILES	GI50 (786-0 renal) [µM]	TGI (786-0 renal) [µM]	GI50 (BT-549 breast) [µM]	TGI (BT-549 breast) [µM]	GI50 (HCT-116 colon) [µM]	TGI (HCT-116 colon) [µM]	GI50 (K-562 leukemia) [µM]	TGI (K-562 leukemia) [µM]	GI50 (LOX IMVI melanoma) [µM]	TGI (LOX IMVI melanoma) [µM]	GI50 (MDA-MB-435) [µM]	TGI (MDA-MB-435) [µM]	GI50 (NCI/ADR-RES ovarian) [µM]	TGI (NCI/ADR-RES ovarian) [µM]	GI50 (OVCAR-5 ovarian) [µM]	TGI (OVCAR-5 ovarian) [µM]	GI50 (SR leukemia) [µM]	TGI (SR leukemia) [µM]	GI50 (SF-295 CNS) [µM]	TGI (SF-295 CNS) [µM]
COc1ccc(NC(=O)c2cccc(C3CCc4c(cc(OC)c(OC)c4OC)O3)c2)cc1 (configuration not stated)	4.18	> 100	2.83	> 100	3.65	> 100	0.654	> 100	3.94	> 100	0.528	9.92	2.81	> 100	6.46	> 100	0.419	> 100	–	–
CCCCC[C@H]1C/C=C2/C(=O)C(Cl)=C[C@@H]2C/C=C\CCCC(=O)O1	0.47	0.888	0.421	0.825	0.201	0.57	0.116	3.6	0.126	0.449	0.337	1.11	0.317	1.64	0.649	1.4	0.122	2.68	0.563	1.53
OCC1OC(n2cnc3c(NCc4ccccc4O)ncnc32)C(O)C1O (configuration not stated)	0.571	7.7	0.177	2.29	0.131	3.4	0.634	> 100	0.0695	3.62	0.184	3.2	0.435	24.4	1.15	> 67.1	0.413	> 29.3	6.48	> 56.7
C(=C\c1ccc(OCC2CO2)cc1)/C1=NCOC1 (configuration not stated)	17.6	53.4	12.4	27.2	7.01	24.1	4.23	> 100	3.35	13.6	11	37.3	3.86	14.9	16.4	37.1	3.05	11.9	28.3	84.6
O=c1[nH]c2ccccc2n1C1CCN(CCOc2ccccc2)CC1	43.9	> 100	34.2	> 100	10.7	> 100	6.85	> 100	15.5	> 100	6.75	72.3	11.5	> 100	47.8	> 100	44	> 100	2.87	19.2
CN(C)C/C=C/C(=O)Nc1cc2c(Nc3cccc(Cl)c3F)ncnc2cc1OCCOC(F)F	0.695	9.77	2.02	9.57	1.87	11	0.939	11.6	1.62	7.09	2.22	11.2	0.771	7.74	0.371	15.1	1.18	5.22	2.82	15.6
CCOC(=O)c1ccc(NC(=O)c2cccc(NC3=C(Cl)C(=O)N(Cc4ccccc4)C3=O)c2)cc1	> 100	> 100	> 100	> 100	> 100	> 100	33.3	> 100	60.3	> 100	> 100	> 100	–	–	–	–	–	–	> 100	> 100
CC[P+]1(c2ccccc2)CCCCC1	–	> 100	–	–	–	> 100	–	> 100	–	> 100	–	–	–	–	–	> 100	–	> 100	–	> 100
FC(F)(F)c1nc(Br)[nH]c1C(F)(F)F	–	> 100	–	–	–	> 100	–	> 100	–	> 100	–	–	–	–	–	> 100	–	> 100	–	> 100
CNC(=O)NCCN1N=C(C)/C(=C\c2ccccc2)CC1=O	–	> 100	–	–	–	> 100	–	> 100	–	> 100	–	–	–	–	–	> 100	–	> 100	–	> 100
CCc1ccccc1NC(=O)C(=O)C(C#N)c1c(Cl)cccc1Cl (configuration not stated)	–	> 100	–	–	–	> 100	–	> 100	–	> 100	–	–	–	–	–	–	–	> 100	–	> 100
N#CC(C#N)=C1CCC2C(=C(C#N)C#N)CCC12 (configuration not stated)	–	> 100	–	–	–	> 100	–	> 100	–	> 100	–	–	–	–	–	> 100	–	> 100	–	> 100
Cc1ccc(NC(=O)CCC(=O)C2Cc3ccccc3C2=O)cc1C (configuration not stated)	–	> 100	–	–	–	> 100	–	> 100	–	> 100	–	–	–	–	–	> 100	–	> 100	–	> 100
CC(C)(C)OC1=C(OC(C)(C)C)C(O)(c2ccc(Cl)cc2)C1=O (configuration not stated)	–	> 100	–	–	–	–	–	> 100	–	> 100	–	–	–	–	–	> 100	–	> 100	–	> 100
CC(=N/NC(N)=S)/C(C)=N/NC(N)=S	–	> 100	–	> 100	–	> 100	–	> 100	–	> 100	–	> 100	–	> 100	–	> 100	–	> 100	–	–
CCOC(=O)c1cc2c(n1Cc1cc(OC)cc(OC)c1)-c1oncc1CC2	0.499	> 100	4.37	> 100	0.157	> 100	0.0518	> 100	0.593	> 100	–	–	0.0486	–	0.474	> 100	0.0475	> 36.8	0.0518	–
O=C1CCc2ccc(O)c(c2)Oc2ccc(cc2)[C@@H]2O[C@@H]2CO1	–	> 100	–	–	–	> 100	–	> 100	–	> 100	–	–	–	–	–	> 100	–	> 100	–	> 100
O=C(O)CCSC(=O)Nc1ccccc1	–	> 100	–	–	–	> 100	–	> 100	–	> 100	–	–	–	–	–	> 100	–	> 100	–	> 100
Cc1cn2c(/C=C3\C(=O)N(C)c4ccc(Cl)cc43)c(C)nc2s1	4.92	21.7	6.4	> 100	2.55	14.6	–	–	5.05	> 100	1.94	5.66	1.9	5.66	3.16	12.2	0.226	1.52	3.63	> 100
CN(C)CCNC(=O)c1cccc2c1nc(-c1ccncc1)c1ccccc12	–	17.8	–	–	–	9.23	–	> 100	–	3.66	–	–	–	–	–	23.7	–	–	–	15.9

SMILES	GI50 (786-0 renal) [µM]	TGI (786-0 renal) [µM]	GI50 (BT-549 breast) [µM]	TGI (BT-549 breast) [µM]	GI50 (HCT-116 colon) [µM]	TGI (HCT-116 colon) [µM]	GI50 (K-562 leukemia) [µM]	TGI (K-562 leukemia) [µM]	GI50 (LOX IMVI melanoma) [µM]	TGI (LOX IMVI melanoma) [µM]	GI50 (MDA-MB-435) [µM]	TGI (MDA-MB-435) [µM]	GI50 (NCI/ADR-RES ovarian) [µM]	TGI (NCI/ADR-RES ovarian) [µM]	GI50 (OVCAR-5 ovarian) [µM]	TGI (OVCAR-5 ovarian) [µM]	GI50 (SR leukemia) [µM]	TGI (SR leukemia) [µM]	GI50 (SF-295 CNS) [µM]	TGI (SF-295 CNS) [µM]
COc1cc(NCCC2CCCCN2)c2ncccc2c1OC (configuration not stated)	14.5	36.9	19.9	34.8	1.94	3.7	–	–	1.95	5.49	–	–	22.8	70.5	19.1	62.7	–	–	10.4	31
CCOC(=O)CCn1cnc(N)n1	–	> 100	–	–	–	> 100	–	> 100	–	> 100	–	–	–	–	–	> 100	–	> 100	–	> 100
C=C1C(C(=O)O)C1C(=O)O (configuration not stated)	–	> 100	–	–	–	> 100	–	> 100	–	> 100	–	–	–	–	–	> 100	–	> 100	–	> 100
Oc1ccc(/C=N/NC(=S)Nc2cccnc2)nc1	–	> 73.5	–	–	–	> 100	–	> 23.1	–	> 100	–	> 100	–	9.59	–	> 100	–	0.807	–	> 75.6
CCN(CC)CCCC(C)Nc1ccnc(/C=C/c2ccc(Cl)cc2)c1 (configuration not stated)	–	3.45	–	8.39	–	3.22	–	–	–	3.28	–	2.95	–	15.3	–	8.04	–	> 27.2	–	6.3
CSc1cc(C(C)(C)C)ccc1C(O)c1ccc(C(C)(C)C)cc1SC	–	22.7	–	–	–	17.8	–	30.5	–	24.3	–	–	–	–	–	27	–	32.2	–	22.6
CC(=O)/C=C/c1ccc(N(CCO)Cc2ccc(C(C)(C)C)cc2)cc1	51.3	184	47.8	178	30	125	–	–	28.3	134	64	196	39.1	174	63.3	211	39.1	169	40.3	176
O=C(c1ccc(Nc2nccc(NCCCCNc3ccnc4cc(Cl)ccc34)n2)cc1)N1CCCCC1	1.46	2.82	1.75	3.42	1.01	2.42	–	–	0.971	2.33	1.7	3.89	12.6	> 100	4.32	25.9	0.219	1.5	1.54	3.33
c1ccc2c(c1)[nH]c1c3ccccc3sc21	–	> 100	–	–	–	> 100	–	> 100	–	> 100	–	> 100	–	> 100	–	> 100	–	> 100	–	> 100
c1ccc(/C(=N\Nc2nc3ccccc3s2)c2ccccn2)cc1	–	24.4	–	> 100	–	9.16	–	> 44.1	–	42.4	–	> 100	–	> 100	–	> 51.4	–	–	–	> 100
CC(=O)[CH-]C(=O)c1ccccc1.CC(=O)[CH-]C(=O)c1ccccc1.CC(=O)[CH-]C(=O)c1ccccc1.[Br-].[Zr+4]	67.1	> 100	–	–	–	–	> 100	> 100	89.7	> 100	–	–	–	–	29.8	> 100	–	–	33.8	> 100
Nc1cc(N)c2nc(-c3ccccc3)c(NCc3ccc(Cl)c(Cl)c3)nc2c1	13.1	30.4	–	–	11.5	24.1	3.09	17.8	–	–	2.74	7.56	17.4	45.6	23.8	40.7	1.63	5.97	15.5	37.2
C=CCC1C(=O)CC2(C)C(CC=C)C(=O)CC12C (configuration not stated)	–	> 100	–	–	–	> 100	–	> 100	–	> 100	–	–	–	–	–	> 100	–	> 100	–	> 100
O=C(OCc1ccccc1)n1cccc1	–	> 100	–	–	–	> 100	–	> 100	–	> 100	–	–	–	–	–	> 100	–	> 100	–	> 100
C=CCN1C(=O)[C@]2(SC1=S)[C@H](c1cccc(Cl)c1)CN(C)[C@]21C(=O)NC2C=CC(Cl)=C[C@H]21 (some centres not stated)	1.51	3.48	2.06	8.49	2.88	13.9	–	–	1.73	3.95	5.9	21.5	4.18	21.2	4.35	18.1	1.68	4.48	7.29	21.4
N/C(=N/S(=O)(=O)c1cc(C(=O)Nc2ccc(F)cc2)c(Cl)cc1SCc1ccccc1)Nc1ccccc1O	2.3	6.01	1.83	4.74	1.95	4	1.33	3.64	1.76	3.41	1.76	3.19	> 100	> 100	16.4	31.3	–	–	1.95	3.66
CCc1cccc(NC(=O)c2cc(/C=C/c3ccccc3)[nH]c(=S)n2)c1	–	> 100	–	–	–	> 100	–	> 100	–	–	–	–	–	–	–	> 100	–	> 100	–	> 100
CCOP(=O)(OCC)C(NC(c1ccccc1)c1ccccc1)c1ccc(C(C)C)cc1 (configuration not stated)	5.6	18.9	6.8	28.9	3.08	11.3	3.48	14.8	4.33	16	3.71	11.6	2.14	7.52	–	–	–	–	2.92	11.7
N#CC1=C(c2ccccc2)OC2(N)OC(c3ccccc3)=C(C#N)C12C#N (configuration not stated)	–	> 100	–	–	–	–	–	> 100	–	> 100	–	–	–	–	–	> 100	–	–	–	> 100
